For nine compounds, IC50 and melting point results are on record in US6716845B2, “Barbituric acid derivatives” (Hoffmann-La Roche Inc., priority 2001, dated 2004).

The target of the first data set is T1, MMP-8, catalytic domain (Homo sapiens, UniProt P22894).
T1 construct: Enzyme: 8 nM catalytic domain (Met80-Gly242) of human neutrophil collagenase (MMP-8); made in house
T1 sequence (P22894 100-262 limits assumed): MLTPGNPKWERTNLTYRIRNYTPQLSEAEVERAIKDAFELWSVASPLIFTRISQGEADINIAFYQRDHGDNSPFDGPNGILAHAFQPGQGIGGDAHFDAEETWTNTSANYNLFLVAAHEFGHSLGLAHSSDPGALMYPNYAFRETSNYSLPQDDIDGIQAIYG
The experiment in a line: Inhibition of MMP-8 catalytic domain, fluorogenic DNP-heptapeptide substrate cleavage. It counts as biochemical.
Conditions: not given
Here is the method: The results are evaluated by plotting the reciprocal reaction rate against the concentration of the inhibitor.
The synthetic collagenase substrate is a heptapeptide which is coupled, at the C terminus, with DNP (dinitrophenol). Said DNP residue quenches by steric hindrance the fluorescence of the adjacent tryptophane of the heptapeptide. After cleavage of a tripeptide which includes the DNP group, the tryptophane fluorescence increases. The proteolytic cleavage of the substrate therefore can be measured by the fluorescence value.
The assay was performed at 25° C. in a freshly prepared 50 mM Tris buffer (pH 8.0) treated with dithiozone to remove traces of heavy metals. 4 mM CaCl2 was added and the buffer saturated with argon. Stock solutions of adamalysin II were prepared by centrifugation of the protein from an ammonium sulfate suspension and subsequent dissolution in the assay buffer. Stock solutions of collagenase were diluted with the assay buffer. Enzyme concentrations were determined by uv measurements (ε280=2.8 10^4 M^−1 cm^−1, ε288: 2.2 10^4 M^−1·cm^−1) and the stock solutions were stored in the cold. […] Substrate fluorescence was measured at an excitation and emission wavelength of λ=320 and 420 nm, respectively, on a spectrofluorimeter (Perkin Elmer, Model 650-40) equipped with a thermostated cell holder. Substrate hydrolysis was monitored for 10 min. immediately after adding the enzyme. All reactions were performed at least in triplicate. The Ki values-of the inhibitors were calculated from the intersection point of the straight lines obtained by the plots of vo/vi vs. [concentration of inhibitor], whereas IC50 values were calculated from plots of vi/vo [concentration of inhibitor] by non-linear regression with simple robust weighting.
50 mM Tris/HCI pH 7.6 (Tris=Tris-(hydroxymethyl)-aminomethane)
100 mM NaCl/10 mM CaCl2/5% MeOH (if necessary)
Enzyme: 8 nM catalytic domain (Met80-Gly242) of human neutrophil collagenase (MMP-8)
Substrate: 10 microM DNP-Pro-Leu-Gly-Leu-Trp-Ala-D-Arg-NH2
A solution of the enzyme and inhibitor in assay buffer (25° C.) was prepared. The reaction was started by giving the substrate into the solution. The cleavage of the fluorogenic substrate was followed by fluorescence spectroscopy with an excitation and emission wavelength of 280 and 350 nm, respectively. The IC50 value was calculated as the inhibitor concentration, which is necessary to decrease the velocity of the reaction to the half in comparison to the reaction without inhibitor.
For orientation: IC50 means the concentration at which inhibition is half-maximal. For the compound `O=C1NC(=O)C(NCCN2CCN(c3ncccn3)CC2)(c2ccc(Oc3ccc(Br)cc3)cc2)C(=O)N1` [Example 2 - no. 10, 5-[4-(4-Bromo-phenoxy)-phenyl]-5-[2-(4-pyrimidin-2-yl-piperazin-1-yl)-ethylamino]-pyrimidine-2,4,6-trione], the concentration for half-maximal inhibition (IC50) came out at 9 nM.

Staying with this data set, now noted: catalytic domain of human neutrophil collagenase (MMP-8); substrate DNP-Pro-Leu-Gly-Leu-Trp-Ala-D-Arg-NH2; 25° C.; read-out: IC50 Values of MMP-Inhibitor (vs. MMP-8, catalytic domain).
In the case of `O=C1NC(=O)C(c2ccc(Oc3ccc(Cl)c(Cl)c3)cc2)(N2CCN(CCOCCO)CC2)C(=O)N1` [Example 2 - no. 4, 5-[4-(3,4-Dichloro-phenoxy)-phenyl]-5-4-[2-(2-hydroxy-ethoxy)-ethyl]-piperazin-1-yl-pyrimidine-2,4,6-trione], the 50% inhibitory concentration (IC50) is 7 nM. Regarding `O=C1NC(=O)C(c2ccc(Sc3ccccc3)cc2)(N2CCN(CCOCCO)CC2)C(=O)N1` [Example 2 - no. 5, 5-4-[2-(2-Hydroxy-ethoxy)-ethyl]-piperazin-1-yl-5-(4-phenylsulfanyl-phenyl)-pyrimidine-2,4,6-trione], the half-maximal inhibitory concentration (IC50) turned out to be 19 nM. The same measure, in the same setting: with `CCOCC(O)CN1CCN(C2(c3ccc(Oc4ccc(Cl)cc4)cc3)C(=O)NC(=O)NC2=O)CC1` (stereo not shown) [Example 2 - no. 3, 5-[4-(4-Chloro-phenoxy)-phenyl]-5-[4-(3-ethoxy-2-hydroxy-propyl)-piperazin-1-yl]-pyrimidine-2,4,6-trione] the figure was 15 nM; with `NS(=O)(=O)c1ccc(CN2CCN(C3(c4ccc(Oc5ccc(Br)cc5)cc4)C(=O)NC(=O)NC3=O)CC2)cc1` [Example 2 - no. 11, 4-(4-5-[4-(4-Bromo-phenoxy)-phenyl]-2,4,6-trioxo-hexahydro-pyrimidin-5-yl-piperazin-1-ylmethyl)-benzenesulfonamide], 11 nM.

Regarding `O=C1NC(=O)C(c2ccc(Oc3ccc(Cl)cc3)cc2)(N2CCN(CC3COC(=O)O3)CC2)C(=O)N1` (stereo not shown) [Example 2 - no. 2, 5-[4-(4-Chloro-phenoxy)-phenyl]-5-[4-(2-oxo-[1,3]dioxolan-4-ylmethyl)-piperazin-1-yl]-pyrimidine-2,4,6-trione], the IC50 was 9 nM. Regarding `O=C(O)CCC(=O)N1CCN(C2(c3ccc(Oc4ccccc4)cc3)C(=O)NC(=O)NC2=O)CC1` [Example 3, 4-Oxo-4-4-[2,4,6-trioxo-5-(4-phenoxy-phenyl)-hexahydro-pyrimidin-5-yl]-piperazin-1-yl-butyric acid], the IC50 worked out at 11 nM. Turning to `O=C1NC(=O)C(c2ccc(Oc3ccc(Cl)cc3)cc2)(N2CCN(CC(O)CO)CC2)C(=O)N1` (stereo not shown) [Example 1, 5-[4-(4-Chloro-phenoxy)-phenyl]-5-[4-(2,3-dihydroxy-propyl)-piperazin-1-yl]-pyrimidine-2,4,6-trione], the IC50 amounted to 11 nM. Regarding `O=C1NC(=O)C(c2ccc(Oc3ccc(Cl)cc3)cc2)(N2CCN(CCOCCO)CC2)C(=O)N1` [Example 2 - no. 1], the half-maximal inhibitory concentration (IC50) turned out to be 16 nM.

Tested on in the next data set: not given
Experiment: not given
Conditions: not given
By melting point is commonly meant the temperature, or range, at which the solid turns liquid. Consider `O=C(O)CCC(=O)N1CCN(C2(c3ccc(Oc4ccccc4)cc3)C(=O)NC(=O)NC2=O)CC1` [Example 3, 4-Oxo-4-4-[2,4,6-trioxo-5-(4-phenoxy-phenyl)-hexahydro-pyrimidin-5-yl]-piperazin-1-yl-butyric acid], for which the melting point lay in the range of 270 to 275 °C.
